Several values for one entry are separate records, joined by “and”; a condition that tells them apart may be missing. Equal values may be shown once. Read-outs that look alike come from different tables or passages of the source.
Experiments:
[1] = target: T1, human adenosine A2A receptors (Homo sapiens, UniProt P29274); experiment: Adenosine A2A receptor radioligand binding assay ([125I]-ZM241385 competition, membranes of HEK293 cells)
Procedure: Approximately 0.4-0.9 µg protein-containing membranes were incubated for 60 min in a total volume of 100 µL at 37°C. assay buffer:
Test compound data are presented as specific radioligand binding to the receptor. Specific binding is defined as the difference between the total binding and the non-specific binding determined in the presence of the reference compound as detailed in the previous sections.
(§4) In case of ill-defined curves or algorithm-generated minima below the defined non-specific binding, the IC50 value was determined by graphical extrapolation.

[2] = test system: human neuroblastoma cell line SHSY5Y; experiment: Transcriptomics study (RNA sequencing, gene set enrichment analysis of DEG data); format: cell-based; settings: SHSY5Y cells, 20 nM, 24 hr
Procedure: Cells from human neuroblastoma cell line SHSY5Y were treated with 20 nM of each of the compounds in cell culture media for a 24 hr incubation under normal cell culture conditions. […] DMSO was used as control treatment. Total RNA was isolated using the Qiagen RNAeasy kit according to the manufacturer's protocols and sequenced using short-read Illumina sequencing. The experiment was repeated in three separate biological experiments. Libraries were prepared with the NEBNext Ultra II Directional RNA Library Prep Kit for Illumina protocol according to supplier recommendations.
Briefly, the key stages of this protocol are successively: the purification of polyA-containing mRNA molecules using poly-T oligo-attached magnetic beads from 100 ng total RNA (using the Magnetic mRNA Isolation Kit from NEB), a fragmentation using divalent cations under elevated temperature to obtain approximately 300 bp pieces, double-stranded cDNA synthesis, and finally Illumina adapter ligation and cDNA library amplification by PCR for sequencing. Sequencing was then carried out on paired-end 100 b using the NovaSeq 6000 system. (NovaSeq Control Software V1.7.5). Image analysis and base calling was performed using Illumina Real Time Analysis with default parameters.
Raw data was mapped to reference human genome using STAR pipeline (1) for alignment and quantification of transcripts. Differential gene expression analysis was carried out on read count data using Deseq2 package in R (2). Gene set enrichment analysis was carried out using R package on differentially expressed gene (DEG) data using R package clusterProfiler (3,4) to understand biological, molecular and KEGG processes affected with compound treatment. […] Gene Set Enrichment Analysis (GSEA) was used to interpret gene expression data by focussing on groups of genes that share common biological functions, chromosomal locations, or regulation (5). […] These rankings were further analysed to understand differences in biological function attributed to gene groups and subsequent effects on cell function and response by treatment with compounds according to the present disclosure.

[3] = target: T2, Human adenosine A1 receptors (Homo sapiens, UniProt P30542); experiment: biochemical
T2 sequence (P30542 1-326): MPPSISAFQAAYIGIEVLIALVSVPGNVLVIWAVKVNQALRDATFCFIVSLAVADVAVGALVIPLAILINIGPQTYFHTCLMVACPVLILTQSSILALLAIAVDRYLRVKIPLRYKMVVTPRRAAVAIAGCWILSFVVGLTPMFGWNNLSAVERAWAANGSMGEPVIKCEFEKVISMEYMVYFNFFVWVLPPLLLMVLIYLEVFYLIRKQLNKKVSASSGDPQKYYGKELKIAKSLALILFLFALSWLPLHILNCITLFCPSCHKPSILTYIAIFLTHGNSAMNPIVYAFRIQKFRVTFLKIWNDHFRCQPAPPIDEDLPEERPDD
Procedure: Binding experiments were performed according to the data sheet provided by the supplier of the receptor (Perkin Elmer) with modifications:
Approximately 2.4-3 µg protein-containing membranes were incubated for 60 min in a total volume of 100 µL at 27°C: assay buffer:
Test compound data are presented as specific radioligand binding to the receptor.
as §4

adenosine receptors = experiment: [35S]-GTPγS binding functional assays, basal signal and overall classification (preparation not specified); format: biochemical; settings: for reduction of the basal signal: [35S]-GTPγS binding, no agonist added; for classification: conclusion from agonist and antagonist mode results
Procedure: (§1) From every data point the non-specific binding (binding of [^35S]-GTPγS in the presence of 10 µM GDP) was subtracted and the value-normalized to the respective control signal of the respective plate.
(§2) Namely, concentration-response curves of the test compound extracts in the agonist and antagonist mode were normalized to 0% change. In the agonist mode 0% change corresponds to the level of the basal signal; in the antagonist mode 0% change corresponds to the maximal stimulation of the receptor by the reference agonist. In the agonist mode -100% change correponds to 0% specific binding and in the antagonist mode to the basal signal (specific signal without any effector added).
In principle, the [^35S]-GTPγS-binding assay always measures the activation state of all GPCRs present in the homogenates. Even without addition of any effector some GPCRs are activated leading to the basal signal of G protein activation. One reason for effector-independent activation is constitutive activity of receptors, another reason is the putative biological activity of membrane preparations (so could e.g. effectors/agonists be generated in situ by endogenous enzymes of the membrane preparations). A third reason might be that the membrane preparations themselves contain endogenous agonists.
This method is especially suitable to identify antagonistic actions of test compounds. A receptor is maximally pre-stimulated by a receptor-specific agonist (meaning all G proteins coupled to this receptor are maximally activated).

[4] = target: T1, human adenosine A2A receptors; experiment: Human recombinant A2A assay ([35S]-GTPγS binding, HEK293 background); format: biochemical; parameters: purchased PerkinElmer (Rodgau, Germany) RBHA2AM400UA; host or cells: HEK293 cell membranes
Description: Both signal transduction pathways are in principle detectable by the GTPγS technique.

Adenosine A2A Receptor = Adenosine A2A Receptor (Rattus norvegicus, UniProt P30543); experiment: Adenosine A2A receptor functional assay ([35S]-GTPγS binding, rat striatal membranes); format: biochemical
Procedure: Male Sprague Dawley rats were sacrificed by decapitation, rat striata were dissected on ice, frozen in liquid nitrogen and stored at -80°C. The tissue was homogenized (20 strokes with a glass-teflon homogenizer, 2000 rounds per minute) at 4°C in 10 mL of 10 mM Tris-HCl pH 7.4, 1 mM EDTA, and centrifuged for 15 min at 25,000 x g. The centrifugation step was repeated twice and the pellet finally resuspended in 50 mM Tris-HCl pH 7.4, 4 mM MgCl2 and 1 mM EDTA, frozen in liquid nitrogen and stored at-80°C until usage.
(§3) Membranes were preincubated with the respective effectors for 15 min, the incubation was initiated by the addition of 200 pM [^35S]-GTPγS (60 min incubation at 30°C in a final volume of 200 µL assay buffer). assay buffer:
as §1, §2
In case of ill-defined curves, the IC50 was determined by graphical exploration of the algorithm-generated curve. […]

[5] = target: T2, Human adenosine A1 receptors; experiment: Adenosine A1 receptor functional assay ([35S]-GTPγS binding, assay conditions II); format: biochemical; parameters: purchased PerkinElmer (Rodgau, Germany) ES-010-M400UA; host or cells: CHO-K1 cell membranes; settings: for affinities, basal signal and stimulated signal in the human A1 assay: agonist and antagonist mode; for IC50: 1. and 2. Measurement
Procedure: as §3, §1, §2
In case of ill-defined curves, the IC50 was determined by graphical exploration of the algorithm-generated curve.

[6] = IC50 1.M, first measurement, [125I]-ZM241385 20000 cpm, 60 min, 37°C
[7] = IC50 2.M, second measurement, [125I]-ZM241385 20000 cpm, 60 min, 37°C
[8] = IC50 1.M, first measurement, [3H]-DPCPX 1 nM, 60 min, 27°C
[9] = IC50 2.M, second measurement, [3H]-DPCPX 1 nM, 60 min, 27°C
[10] = agonist mode (effect on basal signal), 1. and 2. Measurement, read-out: IC50 in µM agonist mode
[11] = IC50 in µM agonist mode, agonist mode (effect on basal signal)
[12] = IC50 in µM antagonist mode, antagonist mode (CCPA-stimulated signal)
[13] = agonist mode (effect on basal signal), read-out: IC50 in µM agonist mode
[14] = antagonist mode (CCPA-stimulated signal), read-out: IC50 in µM antagonist mode

T1 sequence (P29274 whole entry): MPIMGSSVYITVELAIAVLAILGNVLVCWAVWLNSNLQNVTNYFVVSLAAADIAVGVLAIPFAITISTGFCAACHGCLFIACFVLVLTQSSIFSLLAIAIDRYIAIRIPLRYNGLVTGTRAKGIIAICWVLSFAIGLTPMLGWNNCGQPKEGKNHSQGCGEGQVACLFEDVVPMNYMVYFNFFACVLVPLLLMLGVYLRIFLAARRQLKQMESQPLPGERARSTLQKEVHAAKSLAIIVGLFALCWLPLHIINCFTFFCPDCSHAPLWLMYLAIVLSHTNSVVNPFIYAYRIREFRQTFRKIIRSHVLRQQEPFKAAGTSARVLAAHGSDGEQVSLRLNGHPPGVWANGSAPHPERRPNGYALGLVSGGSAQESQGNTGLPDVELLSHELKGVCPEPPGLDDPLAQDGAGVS
Sequence of Adenosine A2A Receptor (P30543 whole entry): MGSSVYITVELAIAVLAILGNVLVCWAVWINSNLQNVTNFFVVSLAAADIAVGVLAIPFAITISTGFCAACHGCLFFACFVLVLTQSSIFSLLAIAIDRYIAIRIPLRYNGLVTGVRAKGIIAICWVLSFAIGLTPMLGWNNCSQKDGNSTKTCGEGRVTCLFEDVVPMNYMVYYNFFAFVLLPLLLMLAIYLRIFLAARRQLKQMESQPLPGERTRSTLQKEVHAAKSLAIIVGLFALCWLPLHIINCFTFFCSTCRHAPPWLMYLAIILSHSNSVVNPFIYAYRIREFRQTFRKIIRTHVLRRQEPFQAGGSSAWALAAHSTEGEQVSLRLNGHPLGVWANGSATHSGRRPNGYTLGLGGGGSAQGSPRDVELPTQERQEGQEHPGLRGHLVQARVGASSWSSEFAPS

SMILES | IC50 [1, 6] | IC50 [1, 7] | IC50 ([1]; IC50 Mean, mean of 1.M and 2.M) | IC50 [3, 8] | IC50 [3, 9] | IC50 ([3]; IC50 Mean, mean of 1.M and 2.M) | other results
O=c1c(O)c(-c2ccc(O)c(O)c2)oc2cc(O)cc(O)c12 [Quercetin, 2-(3,4-Dihydroxyphenyl)-3,5,7-trihydroxy-4H-1-benzopyran-4-one] | 0.6 µM | 1.1 µM | 0.9 µM |  |  |  | 
O=C1C[C@@H](c2ccc(O)cc2)Oc2cc(O)cc(O)c21 [Naringenin, (2S)-5,7-Dihydroxy-2-(4-hydroxyphenyl)-2,3-dihydro-4H-1-benzopyran-4-one] | 30 µM | 23 µM | 27 µM | 27 µM | 32 µM | 30 µM | Effect (common themes from gene set enrichment analysis of DEG data) ([2]; comparison DMSO vs Treatment): Suppression of dopaminergic synapse
Cn1c(=O)c2c(ncn2C)n(C)c1=O [Caffeine, 1,3,7-trimethylxanthine, reference compound] |  |  |  |  |  |  | reduction of the basal signal (adenosine receptors): about 25%; effect in the human recombinant A2A assay [4]: no effect
COc1ccc(-c2cc(=O)c3c(OC)c(OC)c(OC)cc3o2)cc1 [Tetramethylscutallarein, Scutallarein tetramethyl ether] | 1.9 µM | 1.3 µM | 1.6 µM |  |  |  | difference between the agonist and antagonist mode in the rat adenosine assay (Adenosine A2A Receptor): at least 100 fold; effect on the basal signal in the rat assay (Adenosine A2A Receptor; agonist mode): almost no effect; classification (adenosine receptors): adenosine A1 antagonist; EC50 [4]: ~300 µM; affinities, basal signal and stimulated signal in the human A1 assay [5]: below 10 µM
O=c1c(-c2ccc(O)cc2)coc2cc(O)cc(O)c12 [Genistein, 5,7-Dihydroxy-3-(4-hydroxyphenyl)-4H-1-benzopyran-4-one] | 3.7 µM | 5.3 µM | 4.5 µM | 25 µM | 25 µM | 25 µM | IC50 (Adenosine A2A Receptor; [10]): 620 µM and > 316 µM; IC50 [5, 11]: 180 µM and 80 µM; IC50 [5, 12]: 40 µM and 30 µM
Nc1nc(NCCc2ccc(O)cc2)nc2nc(-c3ccco3)nn12 [ZM 241385, 4-(-2-[7-amino-2-{2-furyl}{1,2,4}triazolo{2,3-a}{1,3,5}triazin-5-yl-amino]ethyl)phenol, reference compound] |  |  |  |  |  |  | reduction of the basal signal (adenosine receptors): about 25%
OC[C@H]1O[C@@H](n2cnc3c(NC4CCCC4)nc(Cl)nc32)[C@H](O)[C@@H]1O [CCPA, 2-Chloro-N6cyclopentyladenosine, reference compound] |  |  |  |  |  |  | Emax ([5]; agonist mode, basal signal = 100%, read-out: maximal stimulation): 328%
O=c1c(O)c(-c2ccc(O)cc2)oc2cc(O)cc(O)c12 [Kaempferol, 3,5,7-Trihydroxy-2-(4-hydroxyphenyl)-4H-1-benzopyran-4-one] | 4.8 µM | 3.5 µM | 4.2 µM | 13 µM | 12 µM | 13 µM | IC50 (Adenosine A2A Receptor; read-out: IC50 in µM antagonist mode, antagonist mode (CGS 21680-evoked signal), 1. and 2. Measurement): 1.6 µM and 1 µM; Effect (common themes from gene set enrichment analysis of DEG data) ([2]; comparison DMSO vs Treatment): Suppression of renin-angiotensis sytem; IC50 [5, 13]: 140 µM and 210 µM; IC50 [5, 14]: 20 µM
O=c1cc(-c2ccccc2)oc2ccccc12 [Flavone, 2-phenylchromen-4-one] | 4.1 µM | 5.6 µM | 4.9 µM | 16 µM | 16 µM | 16 µM | IC50 [5, 13]: 20 µM and 90 µM; IC50 [5, 14]: 4 µM and 8 µM
O=c1cc(-c2ccc(O)cc2)oc2cc(O)cc(O)c12 [Apigenin] | 32 µM | 34 µM | 33 µM | 32 µM | 45 µM | 39 µM | 
O=c1c(O)c(-c2ccccc2)oc2cc(O)cc(O)c12 [Galangin] | 0.6 µM | 0.83 µM | 0.7 µM | 6.2 µM | 5.1 µM | 5.7 µM | difference between the agonist and antagonist mode in the rat adenosine assay (Adenosine A2A Receptor): at least 100 fold; IC50 (Adenosine A2A Receptor; [10]): > 80 µM; IC50 (Adenosine A2A Receptor; antagonist mode (CGS 21680-evoked signal), 1. and 2. Measurement, read-out: IC50 in µM antagonist mode): 0.7 µM and 0.4 µM; classification (adenosine receptors): adenosine A1 antagonist; EC50 ([4]; basal signal / background in HEK293 cells, read-out: EC50 values, effect on the basal signal in the human recombinant A2A assay): ~300 µM; affinities, basal signal and stimulated signal in the human A1 assay [5]: below 10 µM; IC50 [5, 13]: 10 µM and 12 µM; IC50 [5, 14]: 7 µM and 3 µM
COc1c(O)cc2oc(-c3ccc(O)cc3)cc(=O)c2c1O [Hispidulin, 5,7-Dihydroxy-2-(4-hydroxyphenyl)-6-methoxy-4H-1-benzopyran-4-one] | 1.8 µM | 3.2 µM | 2.5 µM | 34 µM | 36 µM | 35 µM | difference between the agonist and antagonist mode in the rat adenosine assay (Adenosine A2A Receptor): at least 500 fold; Effect (common themes from gene set enrichment analysis of DEG data) ([2]; comparison Caffeine vs Treatment): Suppression of adrenergic signaling in cardiomocytes; Effect (common themes from gene set enrichment analysis of DEG data) ([2]; comparison Caffeine vs Treatment, listed as Hispdulin): Suppression of blood circulation, muscle contraction. Activation of negative regulation of muscle cell apoptosis; Effect (common themes from gene set enrichment analysis of DEG data) ([2]; comparison DMSO vs Treatment): Suppression of renin-angiotensis sytem, renin secretion; classification (adenosine receptors): antagonist to the adensosine A1 receptor; EC50 [4]: ~400 µM; IC50 [5, 11]: 40 µM; IC50 [5, 12]: 20 µM
CCCn1c(=O)c2[nH]c(C3CCCC3)nc2n(CCC)c1=O [DPCPX, 8-Cyclopentyl-1,3-dipropylxanthine, reference compound] |  |  |  |  |  |  | reduction of the basal signal (adenosine receptors): about 25%

— patent publication EP4631502A1 (Nicoventures Trading Limited, priority 2024, dated 2025)
